This is an account of results in PMC2921631 (Analytical biochemistry, 2010).

Holding throughout (type): biochemical
Assay [1] has as its target LRRK2 (human, G2019S mutant) (Homo sapiens, UniProt Q5S007, G2019S). The experiment in a line: TR-FRET kinase assay with PLK-peptide, […] h preincubation.
For assay [2], the target named is LRRK2 (human, wild-type) (Homo sapiens, UniProt Q5S007). The description is as above.
Assay [3] has as its target LRRK2 (full-length, from BAC-transgenic mouse brain) (Mus musculus, UniProt Q5S006). The experiment in a line: TR-FRET kinase assay with PLK-peptide.

Sequence of LRRK2 (human, wild-type) (Q5S007 970-2527): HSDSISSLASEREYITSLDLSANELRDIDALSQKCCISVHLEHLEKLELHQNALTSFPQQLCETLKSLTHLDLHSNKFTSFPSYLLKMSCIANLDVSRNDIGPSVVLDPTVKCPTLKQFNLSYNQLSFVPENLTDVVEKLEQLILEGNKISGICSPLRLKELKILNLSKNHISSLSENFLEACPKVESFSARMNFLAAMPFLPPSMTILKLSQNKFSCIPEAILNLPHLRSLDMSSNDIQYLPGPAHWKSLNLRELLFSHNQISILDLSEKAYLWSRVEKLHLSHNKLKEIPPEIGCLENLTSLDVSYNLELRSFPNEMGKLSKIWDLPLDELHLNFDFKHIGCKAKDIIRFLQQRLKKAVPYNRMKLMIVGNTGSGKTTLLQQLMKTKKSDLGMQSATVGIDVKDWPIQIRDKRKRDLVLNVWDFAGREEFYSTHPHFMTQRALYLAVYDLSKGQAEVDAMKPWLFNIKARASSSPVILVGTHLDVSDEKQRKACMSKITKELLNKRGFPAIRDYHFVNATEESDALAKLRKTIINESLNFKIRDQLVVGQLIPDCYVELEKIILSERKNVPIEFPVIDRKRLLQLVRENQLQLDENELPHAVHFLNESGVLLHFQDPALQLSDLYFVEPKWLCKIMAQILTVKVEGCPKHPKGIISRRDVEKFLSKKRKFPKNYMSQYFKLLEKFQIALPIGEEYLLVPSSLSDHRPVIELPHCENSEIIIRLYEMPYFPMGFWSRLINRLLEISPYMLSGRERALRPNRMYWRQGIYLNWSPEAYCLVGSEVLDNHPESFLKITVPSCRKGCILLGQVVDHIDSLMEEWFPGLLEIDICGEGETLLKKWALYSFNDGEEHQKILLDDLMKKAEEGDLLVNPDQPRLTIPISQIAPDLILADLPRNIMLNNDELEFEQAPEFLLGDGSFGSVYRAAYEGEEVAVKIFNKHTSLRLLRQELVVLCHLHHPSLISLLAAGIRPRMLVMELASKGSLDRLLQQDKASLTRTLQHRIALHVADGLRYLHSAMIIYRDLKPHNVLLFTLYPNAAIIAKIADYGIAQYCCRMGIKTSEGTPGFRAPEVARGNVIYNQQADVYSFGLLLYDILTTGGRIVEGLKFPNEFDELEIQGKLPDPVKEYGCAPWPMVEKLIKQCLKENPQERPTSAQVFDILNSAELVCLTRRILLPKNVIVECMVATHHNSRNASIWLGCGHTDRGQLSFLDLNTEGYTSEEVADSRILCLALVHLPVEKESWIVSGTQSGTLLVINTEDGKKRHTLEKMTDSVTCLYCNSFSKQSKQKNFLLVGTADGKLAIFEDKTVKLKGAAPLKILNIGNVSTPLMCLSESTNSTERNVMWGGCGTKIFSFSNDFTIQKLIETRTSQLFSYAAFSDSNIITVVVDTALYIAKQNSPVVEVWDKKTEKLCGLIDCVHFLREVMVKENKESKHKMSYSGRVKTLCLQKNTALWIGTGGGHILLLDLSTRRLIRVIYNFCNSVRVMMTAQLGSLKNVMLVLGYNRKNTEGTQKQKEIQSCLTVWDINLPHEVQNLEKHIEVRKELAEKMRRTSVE
Sequence of LRRK2 (full-length, from BAC-transgenic mouse brain) (Q5S006 whole entry): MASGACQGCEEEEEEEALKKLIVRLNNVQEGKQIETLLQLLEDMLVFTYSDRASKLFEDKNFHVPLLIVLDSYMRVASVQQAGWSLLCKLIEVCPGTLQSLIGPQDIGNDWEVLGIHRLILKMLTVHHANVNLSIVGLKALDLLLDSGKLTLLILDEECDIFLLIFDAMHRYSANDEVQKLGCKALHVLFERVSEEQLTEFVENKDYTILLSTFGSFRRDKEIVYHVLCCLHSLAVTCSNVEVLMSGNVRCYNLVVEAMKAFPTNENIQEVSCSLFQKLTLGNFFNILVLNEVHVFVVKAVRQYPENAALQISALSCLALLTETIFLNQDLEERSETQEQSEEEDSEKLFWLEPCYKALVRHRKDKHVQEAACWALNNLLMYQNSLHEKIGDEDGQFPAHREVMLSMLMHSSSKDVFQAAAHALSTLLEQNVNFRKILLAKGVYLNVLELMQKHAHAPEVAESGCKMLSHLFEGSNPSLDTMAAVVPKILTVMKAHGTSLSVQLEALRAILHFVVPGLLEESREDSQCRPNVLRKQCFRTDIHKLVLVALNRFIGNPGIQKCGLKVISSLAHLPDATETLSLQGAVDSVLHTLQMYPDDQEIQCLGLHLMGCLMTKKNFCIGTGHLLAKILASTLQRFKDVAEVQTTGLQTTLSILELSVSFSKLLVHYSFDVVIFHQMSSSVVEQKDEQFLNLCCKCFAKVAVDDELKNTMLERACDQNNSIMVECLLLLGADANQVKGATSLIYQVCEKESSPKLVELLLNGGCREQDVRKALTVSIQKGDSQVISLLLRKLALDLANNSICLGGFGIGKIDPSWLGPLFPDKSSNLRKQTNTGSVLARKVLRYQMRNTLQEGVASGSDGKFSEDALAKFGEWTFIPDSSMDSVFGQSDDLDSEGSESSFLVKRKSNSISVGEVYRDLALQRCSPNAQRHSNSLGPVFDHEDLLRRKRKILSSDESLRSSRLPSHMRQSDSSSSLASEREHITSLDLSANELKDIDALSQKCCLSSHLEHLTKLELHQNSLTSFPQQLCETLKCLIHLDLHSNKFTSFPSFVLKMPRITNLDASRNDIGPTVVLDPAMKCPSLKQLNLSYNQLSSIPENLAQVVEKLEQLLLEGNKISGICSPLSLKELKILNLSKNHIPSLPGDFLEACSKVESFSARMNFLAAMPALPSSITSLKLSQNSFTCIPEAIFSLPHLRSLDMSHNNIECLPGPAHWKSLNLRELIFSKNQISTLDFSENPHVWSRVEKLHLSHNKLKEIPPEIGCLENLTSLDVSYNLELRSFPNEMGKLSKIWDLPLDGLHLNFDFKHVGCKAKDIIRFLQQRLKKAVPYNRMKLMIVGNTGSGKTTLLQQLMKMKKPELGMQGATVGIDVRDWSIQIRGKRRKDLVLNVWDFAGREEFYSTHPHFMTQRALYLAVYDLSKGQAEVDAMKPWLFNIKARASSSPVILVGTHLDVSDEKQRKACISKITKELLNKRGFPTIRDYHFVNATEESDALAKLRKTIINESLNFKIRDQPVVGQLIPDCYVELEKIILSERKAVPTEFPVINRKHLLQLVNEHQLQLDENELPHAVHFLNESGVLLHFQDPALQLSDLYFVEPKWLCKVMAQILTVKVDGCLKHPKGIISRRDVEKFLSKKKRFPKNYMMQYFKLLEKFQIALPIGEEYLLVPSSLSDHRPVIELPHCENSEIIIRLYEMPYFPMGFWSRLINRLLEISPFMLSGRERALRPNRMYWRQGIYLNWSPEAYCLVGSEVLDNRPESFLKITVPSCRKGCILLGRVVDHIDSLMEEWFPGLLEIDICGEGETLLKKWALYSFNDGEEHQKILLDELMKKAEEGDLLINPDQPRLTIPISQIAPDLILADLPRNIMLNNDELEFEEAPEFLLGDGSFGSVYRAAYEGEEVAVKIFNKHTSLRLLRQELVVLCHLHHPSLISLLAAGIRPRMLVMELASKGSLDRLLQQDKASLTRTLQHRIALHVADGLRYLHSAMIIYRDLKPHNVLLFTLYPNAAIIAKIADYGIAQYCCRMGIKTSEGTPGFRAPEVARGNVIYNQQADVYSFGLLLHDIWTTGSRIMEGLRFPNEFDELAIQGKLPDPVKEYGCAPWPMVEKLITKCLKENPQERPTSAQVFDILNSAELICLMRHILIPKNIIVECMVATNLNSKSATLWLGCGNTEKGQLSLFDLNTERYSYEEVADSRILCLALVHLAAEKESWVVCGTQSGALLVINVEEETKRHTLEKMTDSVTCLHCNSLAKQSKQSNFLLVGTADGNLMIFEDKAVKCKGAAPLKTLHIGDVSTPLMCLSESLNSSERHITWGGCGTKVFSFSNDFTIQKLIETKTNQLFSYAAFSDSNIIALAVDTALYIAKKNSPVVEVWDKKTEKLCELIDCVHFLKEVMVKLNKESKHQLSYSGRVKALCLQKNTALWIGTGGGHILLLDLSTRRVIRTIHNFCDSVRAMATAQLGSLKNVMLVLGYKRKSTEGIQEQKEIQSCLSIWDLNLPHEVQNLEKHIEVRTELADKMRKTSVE
Sequence of LRRK2 (human, G2019S mutant) (Q5S007 970-2527 G2019S): as the sequence (Q5S007 970-2527) above, with G1050S counted along it

Take LDN-22684: the IC50 in assay [1] came out at 6.9 ± 1 µM; in assay [2], 6.1 ± 0.8 µM; in assay [3] it was 5.4 ± 0.8 µM.
